Measurements as given in patent publication US20260262643A1, “HERBICIDAL BENZOXAZINES” (FMC CORPORATION, priority 2022, published 2026).

How the values were obtained:
ragweed [1] = assay: Test A preemergence; type: in vivo, Ambrosia artemisiifolia; conditions: 0 to 100 scale
Outline: (§1)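 Seeds in loam–sand blend received a directed preemergence soil spray of compound in non-phytotoxic solvent with surfactant; postemergence plants (2–10 cm, one- to two-leaf stage) were sprayed with the same formulation. After 10 days in greenhouse, injury was rated visually versus untreated controls, 0 (no effect) to 100 (complete control).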

corn [2] = assay: Test A preemergence; type: in vivo, Zea mays; conditions: 0 to 100 scale
Outline: as §1

rice = assay: Test B flooded paddy test; type: in vivo, Oryza sativa; conditions: 250 g ai/ha, Flood, 13 days, 0 to 100 scale (0 no effect, 100 complete control)
Outline: (§2)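 Plants at the 2-leaf stage were flooded to 3 cm above the soil, and test compounds were applied directly into the paddy water, with that depth held throughout. After 13 days in a greenhouse, injury was rated visually against untreated controls on a 0–100 scale (100 = complete control).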

ryegrass, Italian [3] = assay: Test A postemergence; type: in vivo, Lolium multiflorum; conditions: postemergence, 10 days; for Ryegrass, Italian plant response rating: 125 g ai/ha, 0 to 100 scale, 0 no effect, 100 complete control; for Plant response rating, Ryegrass, Italian: 500 g ai/ha, visual injury, 0 to 100 scale (0 no effect, 100 complete control)
Outline: as §1

blackgrass [4] = assay: Test A postemergence; type: in vivo, Alopecurus myosuroides; conditions: postemergence, 10 days; for Blackgrass plant response rating: 125 g ai/ha, 0 to 100 scale, 0 no effect, 100 complete control; for Plant response rating, Blackgrass: 500 g ai/ha, visual injury, 0 to 100 scale (0 no effect, 100 complete control)
Outline: as §1

galium = assay: Test A postemergence; type: in vivo, Galium aparine; conditions: postemergence, 10 days; for Galium plant response rating: 125 g ai/ha, 0 to 100 scale, 0 no effect, 100 complete control; for Plant response rating, Galium: 500 g ai/ha, visual injury, 0 to 100 scale (0 no effect, 100 complete control)
Outline: as §1

soybean [5] = assay: Test A preemergence; type: in vivo, Glycine max; conditions: 0 to 100 scale
Outline: as §1

ragweed [6] = assay: Test A postemergence; type: in vivo, Ambrosia artemisiifolia; conditions: postemergence, 10 days; for Ragweed plant response rating: 125 g ai/ha, 0 to 100 scale, 0 no effect, 100 complete control; for Plant response rating, Ragweed: 500 g ai/ha, visual injury, 0 to 100 scale (0 no effect, 100 complete control)
Outline: as §1

wheat [7] = assay: Test A preemergence; type: in vivo, Triticum aestivum; conditions: 0 to 100 scale
Outline: as §1

soybean [8] = assay: Test A postemergence; type: in vivo, Glycine max; conditions: postemergence, 10 days; for Plant response rating, Soybean: 500 g ai/ha, visual injury, 0 to 100 scale (0 no effect, 100 complete control)
Outline: as §1

barnyardgrass [9] = assay: Test A postemergence; type: in vivo, Echinochloa crusgalli; conditions: postemergence, 10 days; for Barnyardgrass plant response rating: 125 g ai/ha, 0 to 100 scale, 0 no effect, 100 complete control; for Plant response rating, Barnyardgrass: 500 g ai/ha, visual injury, 0 to 100 scale (0 no effect, 100 complete control)
Outline: as §1

pigweed, palmer [10] = assay: Test A preemergence; type: in vivo, Amaranthus palmeri; conditions: 0 to 100 scale
Outline: as §1

foxtail, giant [11] = assay: Test A postemergence; type: in vivo, Setaria faberi; conditions: postemergence, 10 days; for Foxtail, Giant plant response rating: 125 g ai/ha, 0 to 100 scale, 0 no effect, 100 complete control; for Plant response rating, Foxtail, Giant: 500 g ai/ha, visual injury, 0 to 100 scale (0 no effect, 100 complete control)
Outline: as §1

barnyardgrass [12] = assay: Test B flooded paddy test; type: in vivo, Echinochloa crus-galli; conditions: 250 g ai/ha, Flood, 13 days, 0 to 100 scale (0 no effect, 100 complete control)
Outline: as §2

barnyardgrass [13] = assay: Test A preemergence; type: in vivo, Echinochloa crusgalli; conditions: visual injury after 10 days, 0 to 100 scale, 0 is no effect, 100 is complete control
Outline: as §1

ducksalad = assay: Test B flooded paddy test; type: in vivo, Heteranthera limosa; conditions: 250 g ai/ha, Flood, 13 days, 0 to 100 scale (0 no effect, 100 complete control)
Outline: as §2

ryegrass, Italian [14] = assay: Test A preemergence; type: in vivo, Lolium multiflorum; conditions: 0 to 100 scale
Outline: as §1

blackgrass [15] = assay: Test A preemergence; type: in vivo, Alopecurus myosuroides; conditions: 0 to 100 scale
Outline: as §1

kochia [16] = assay: Test A postemergence; type: in vivo, Bassia scoparia; conditions: postemergence, 10 days; for Kochia plant response rating: 125 g ai/ha, 0 to 100 scale, 0 no effect, 100 complete control; for Plant response rating, Kochia: 500 g ai/ha, visual injury, 0 to 100 scale (0 no effect, 100 complete control)
Outline: as §1

horseweed = assay: Test A postemergence; type: in vivo, Erigeron canadensis; conditions: postemergence, 10 days; for Horseweed plant response rating: 125 g ai/ha, 0 to 100 scale, 0 no effect, 100 complete control; for Plant response rating, Horseweed: 500 g ai/ha, visual injury, 0 to 100 scale (0 no effect, 100 complete control)
Outline: as §1

sedge, umbrella = assay: Test B flooded paddy test; type: in vivo, Cyperus difformis; conditions: 250 g ai/ha, Flood, 13 days, 0 to 100 scale (0 no effect, 100 complete control)
Outline: as §2

kochia [17] = assay: Test A preemergence; type: in vivo, Bassia scoparia; conditions: 0 to 100 scale
Outline: as §1

oat, wild [18] = assay: Test A postemergence; type: in vivo, Avena fatua; conditions: postemergence, 10 days; for Oat, Wild plant response rating: 125 g ai/ha, 0 to 100 scale, 0 no effect, 100 complete control; for Plant response rating, Oat, Wild: 500 g ai/ha, visual injury, 0 to 100 scale (0 no effect, 100 complete control)
Outline: as §1

corn [19] = assay: Test A postemergence; type: in vivo, Zea mays; conditions: postemergence, 10 days; for Corn plant response rating: 125 g ai/ha, 0 to 100 scale, 0 no effect, 100 complete control; for Plant response rating, Corn: 500 g ai/ha, visual injury, 0 to 100 scale (0 no effect, 100 complete control)
Outline: as §1

oat, wild [20] = assay: Test A preemergence; type: in vivo, Avena fatua; conditions: 0 to 100 scale
Outline: as §1

pigweed, palmer [21] = assay: Test A postemergence; type: in vivo, Amaranthus palmeri; conditions: postemergence, 10 days; for Pigweed, Palmer plant response rating: 125 g ai/ha, 0 to 100 scale, 0 no effect, 100 complete control; for Plant response rating, Pigweed, Palmer: 500 g ai/ha, visual injury, 0 to 100 scale (0 no effect, 100 complete control)
Outline: as §1

wheat [22] = assay: Test A postemergence; type: in vivo, Triticum aestivum; conditions: postemergence, 10 days; for Wheat plant response rating: 125 g ai/ha, 0 to 100 scale, 0 no effect, 100 complete control; for Plant response rating, Wheat: 500 g ai/ha, visual injury, 0 to 100 scale (0 no effect, 100 complete control)
Outline: as §1

foxtail, giant [23] = assay: Test A preemergence; type: in vivo, Setaria faberi; conditions: 0 to 100 scale
Outline: as §1

[24] = 125 g ai/ha, visual injury after 10 days, 0 is no effect, 100 is complete control
[25] = 500 g ai/ha, visual injury after 10 days, 0 is no effect, 100 is complete control

Structure (SMILES): C=CCOc1ccc(-n2cnc(C(C)C)n2)cc1C(=O)N1C[C@H](C)Oc2c(Cl)cccc21 [Compound 110]
- Plant response rating, Ragweed (ragweed [1]; [24]): 0
- Plant response rating, Ragweed (ragweed [1]; [25]): 40
- Plant response rating, Corn (corn [2]; [24]): 0
- Plant response rating, Corn (corn [2]; [25]): 50
- Plant response rating, Rice (rice): 0
- Ryegrass, Italian plant response rating (ryegrass, Italian [3]): 20
- Plant response rating, Ryegrass, Italian (ryegrass, Italian [3]): 80
- Blackgrass plant response rating (blackgrass [4]): 0
- Plant response rating, Blackgrass (blackgrass [4]): 50
- Galium plant response rating (galium): 100
- Plant response rating, Galium (galium): 100
- Plant response rating, Soybean (soybean [5]; [24]): 40
- Plant response rating, Soybean (soybean [5]; [25]): 60
- Ragweed plant response rating (ragweed [6]): 10
- Plant response rating, Ragweed (ragweed [6]): 60
- Plant response rating, Wheat (wheat [7]; [24]): 20
- Plant response rating, Wheat (wheat [7]; [25]): 30
- Plant response rating, Soybean (soybean [8]): 100
- Barnyardgrass plant response rating (barnyardgrass [9]): 20
- Plant response rating, Barnyardgrass (barnyardgrass [9]): 50
- Plant response rating, Pigweed, Palmer (pigweed, palmer [10]; [24]): 90
- Plant response rating, Pigweed, Palmer (pigweed, palmer [10]; [25]): 100
- Foxtail, Giant plant response rating (foxtail, giant [11]): 40
- Plant response rating, Foxtail, Giant (foxtail, giant [11]): 90
- Plant response rating, Barnyardgrass (barnyardgrass [12]): 55
- Plant response rating, Barnyardgrass (barnyardgrass [13]; 125 g ai/ha): 50
- Plant response rating, Barnyardgrass (barnyardgrass [13]; 500 g ai/ha): 90
- Plant response rating, Ducksalad (ducksalad): 0
- Plant response rating, Ryegrass, Italian (ryegrass, Italian [14]; [24]): 70
- Plant response rating, Ryegrass, Italian (ryegrass, Italian [14]; [25]): 100
- Plant response rating, Blackgrass (blackgrass [15]; [24]): 40
- Plant response rating, Blackgrass (blackgrass [15]; [25]): 70
- Kochia plant response rating (kochia [16]): 70
- Plant response rating, Kochia (kochia [16]): 90
- Horseweed plant response rating (horseweed): 0
- Plant response rating, Horseweed (horseweed): 0
- Plant response rating, Sedge, Umbrella (sedge, umbrella): 65
- Plant response rating, Kochia (kochia [17]; [24]): 0
- Plant response rating, Kochia (kochia [17]; [25]): 20
- Oat, Wild plant response rating (oat, wild [18]): 0
- Plant response rating, Oat, Wild (oat, wild [18]): 30
- Corn plant response rating (corn [19]): 10
- Plant response rating, Corn (corn [19]): 50
- Plant response rating, Oat, Wild (oat, wild [20]; [24]): 0
- Plant response rating, Oat, Wild (oat, wild [20]; [25]): 50
- Pigweed, Palmer plant response rating (pigweed, palmer [21]): 40
- Plant response rating, Pigweed, Palmer (pigweed, palmer [21]): 50
- Wheat plant response rating (wheat [22]): 10
- Plant response rating, Wheat (wheat [22]): 20
- Plant response rating, Foxtail, Giant (foxtail, giant [23]; [24]): 90
- Plant response rating, Foxtail, Giant (foxtail, giant [23]; [25]): 100

Structure (SMILES): CC(C)c1ncn(-c2ccc(C#N)c(C(=O)N3C[C@H](C)Oc4c(Cl)cccc43)c2)n1 [Compound 140]
- Plant response rating, Ragweed (ragweed [1]; 125 g ai/ha): 0
- Plant response rating, Ragweed (ragweed [1]; [25]): 30
- Plant response rating, Corn (corn [2]; 125 g ai/ha): 0
- Plant response rating, Corn (corn [2]; [25]): 10
- Plant response rating, Rice (rice): 0
- Ryegrass, Italian plant response rating (ryegrass, Italian [3]): 40
- Plant response rating, Ryegrass, Italian (ryegrass, Italian [3]): 50
- Blackgrass plant response rating (blackgrass [4]): 70
- Plant response rating, Blackgrass (blackgrass [4]): 80
- Galium plant response rating (galium): 70
- Plant response rating, Galium (galium): 70
- Plant response rating, Soybean (soybean [5]; 125 g ai/ha): 50
- Plant response rating, Soybean (soybean [5]; [25]): 100
- Ragweed plant response rating (ragweed [6]): 20
- Plant response rating, Ragweed (ragweed [6]): 40
- Plant response rating, Wheat (wheat [7]; 125 g ai/ha): 20
- Plant response rating, Wheat (wheat [7]; [25]): 50
- Soybean plant response rating (soybean [8]; 125 g ai/ha, 0 to 100 scale, 0 no effect, 100 complete control): 100
- Plant response rating, Soybean (soybean [8]): 100
- Barnyardgrass plant response rating (barnyardgrass [9]): 50
- Plant response rating, Barnyardgrass (barnyardgrass [9]): 70
- Plant response rating, Pigweed, Palmer (pigweed, palmer [10]; 125 g ai/ha): 100
- Plant response rating, Pigweed, Palmer (pigweed, palmer [10]; [25]): 100
- Foxtail, Giant plant response rating (foxtail, giant [11]): 90
- Plant response rating, Foxtail, Giant (foxtail, giant [11]): 90
- Plant response rating, Barnyardgrass (barnyardgrass [12]): 20
- Plant response rating, Barnyardgrass (barnyardgrass [13]; 125 g ai/ha): 90
- Plant response rating, Barnyardgrass (barnyardgrass [13]; 500 g ai/ha): 90
- Plant response rating, Ducksalad (ducksalad): 40
- Plant response rating, Ryegrass, Italian (ryegrass, Italian [14]; 125 g ai/ha): 50
- Plant response rating, Ryegrass, Italian (ryegrass, Italian [14]; [25]): 70
- Plant response rating, Blackgrass (blackgrass [15]; 125 g ai/ha): 40
- Plant response rating, Blackgrass (blackgrass [15]; [25]): 70
- Kochia plant response rating (kochia [16]): 90
- Plant response rating, Kochia (kochia [16]): 90
- Horseweed plant response rating (horseweed): 0
- Plant response rating, Horseweed (horseweed): 0
- Plant response rating, Sedge, Umbrella (sedge, umbrella): 75
- Plant response rating, Kochia (kochia [17]; 125 g ai/ha): 80
- Plant response rating, Kochia (kochia [17]; [25]): 90
- Oat, Wild plant response rating (oat, wild [18]): 0
- Plant response rating, Oat, Wild (oat, wild [18]): 50
- Corn plant response rating (corn [19]): 70
- Plant response rating, Corn (corn [19]): 90
- Plant response rating, Oat, Wild (oat, wild [20]; 125 g ai/ha): 30
- Plant response rating, Oat, Wild (oat, wild [20]; [25]): 70
- Pigweed, Palmer plant response rating (pigweed, palmer [21]): 70
- Plant response rating, Pigweed, Palmer (pigweed, palmer [21]): 90
- Wheat plant response rating (wheat [22]): 30
- Plant response rating, Wheat (wheat [22]): 60
- Plant response rating, Foxtail, Giant (foxtail, giant [23]; 125 g ai/ha): 90
- Plant response rating, Foxtail, Giant (foxtail, giant [23]; [25]): 100
